What all share (assay type): cell-based, rat
In experiment [1] the test system is myelin-related glycoprotein (MAG). The experiment in a line: MAG expression in DRG nerve cell/Schwann cell co-culture by immunoblotting, concentration dependence, Experimental Example 2. The settings on record: tested at 1, 3, 10 or 30 μmol/l, added every 2 days for 2 weeks; immunoblot, semi-quantitative. How it is done:
According to the method described in Experimental Example 1, DRG nerve cells and Schwann cells were co-cultured. A DMSO solution containing the compound of the present invention (Y-128, 1, 3, 10 or 30 μmol/l) or ascorbic acid (50 μg/ml) as a positive control compound was added to the medium every 2 days for 2 weeks. As a negative control compound, the vehicle DMSO was added in the same manner. After 2 weeks from the start of the addition of the compound, the medium was removed and a sample buffer containing sodium dodecyl sulfate (SDS) was added to the well for solubilization of the cells.
A part thereof was separated by polyacrylamide gel electrophoresis and the migrated protein was transferred to a PVDF membrane. By immunoblotting and chemiluminescence, the objective protein was detected on an X ray film. A band detected at about 100 kDa migration was identified as a signal of myelin-related glycoprotein (MAG). The X ray film was scanned and the image was imported to a computer, and the expression of MAG was semi-quantitatively determined using an analysis software, ImageQuaNT (Molecular Dynamics). […] From the above-mentioned Experimental Example, it was clarified that the compound of the present invention (Y-128) increased the expression of MAG from the concentration of 3 μmol/l.
A general note: Immunoblotting shows a protein as a band on a membrane.

Experiment [2] has the same test system. Put plainly: Time-course of MAG expression in DRG nerve cell/Schwann cell co-culture, Experimental Example 3. To be noted: 10 μmol/ml, added every 2 days. Here is the method: According to the method described in Experimental Example 1, DRG nerve cells and Schwann cells were co- cultured. A DMSO solution containing the compound of the present invention (Y-128, […]) or ascorbic acid (50 μg/ml) as a positive control compound was added to the medium every 2 days. The medium DMSO was added in the same manner as was the negative control compound. In the same manner as in Experimental Example 2, MAG was quantitatively determined before addition of the compounds and 3, 6, 9, 12, 15 and 18 days after addition.

Experiment [3] has as its system myelination of axon in co-cultured DRG nerve cells and Schwann cells. The experiment in a line: Myelination of axon in co-culture of DRG nerve cells and Schwann cells (Sudan Black B myelin staining), Experimental Example 1. The settings on record: 2 weeks of co-culture. Here is the method:
The preparation of nerve cell followed the method of Seung U. Kim (Experimental Protocols for Brain and Nerve—From cultured cell to functional analysis, ed. Katsuhiko Mikoshiba, Takao Shimizu, Yodosha). That is, an embryo was taken out from a 18-day pregnant female rat (Crj: CD(SD)IGS), from which dorsal spinal nerve root ganglia (hereinafter to be referred to as DRG) was removed under a stereoscopic microscope. DRG was treated with 0.25% trypsin and DNase I at 37° C. to disperse the cells. Adherent cells other than nerve cells were removed and the cells (5000 cells) were plated on a polylysine-coated plate. The cells were cultured in DMEM containing 10% FCS supplemented with the nerve growth factor (hereinafter to be referred to as NGF, 50 ng/ml) in a CO2 incubator. After 3 days of culture, the medium was changed to one containing Ara-C (1 μmol/l) to remove proliferative cells other than the nerve cells.
The preparation of Schwann cells followed the method of Ichiro Matsuoka (Springer Neuroscience Lab Manual 1, ed. Hiroshi Hatanaka, Springer-Verlag Tokyo). That is, the sciatic nerve of a neonatal rat (1 to 3 days postnatal, (Crj: CD(SD)IGS)) was removed under a stereoscopic microscope and adventitia was removed. By treating with trypsin/collagenase and DNase I in CMF-HBSS, the cells were dispersed. Using a culture flask, the cells were cultured in DMEM containing 10% FCS in a CO2 incubator. After culturing in a medium containing Ara-C, the cells were recovered and the cell suspension was treated successively with anti-Thy 1.1 and rabbit complement to remove cells other than the Schwann cells. Using a collagen-coated culture flask, the cells were cultured in DMEM containing 10% FCS in a CO2 incubator.
After 1 week from the start of the culture of DRG nerve cells, Schwann cells (20,000 cells) were plated on a plate in which DRG nerve cells had been cultured. he medium for co-culture was DMEM containing 2 μmol/l f forskolin, 50 ng/ml of NGF and 10% FCS. […]

The structures appear in SMILES notation.

Regarding `Cc1ccc(-n2ccnc2)cc1[C@H](O)c1c(C)cc(C(=O)O)cc1C` [Y-128, (S)-4-[α-hydroxy-5-(1-imidazolyl)-2-methylbenzyl]-3,5-dimethylbenzoic acid], in experiment [1], the “concentration from which the expression of MAG was increased” value is not below 3 µmol/L. Further, in experiment [2], the “time after addition at which the expression of MAG disappeared” value is listed as 18 days. Besides, the “time-course changes of MAG expression compared with positive control ascorbic acid (50 μg/ml)” value in experiment [2] (up to 18 days) was “the same as that by the positive control compound, ascorbic acid”. The “time after addition at which expression of MAG was increased maximally” value in experiment [2] (measured 3, 6, 9, 12, 15 and 18 days after addition) was 6 days and 12 days. In addition, the “effect on myelination of axon (conclusion)” value in experiment [3] (3 μmol/l) is reported as “promoted myelination of axon”. In addition, the “wells in which axon was stained as deep as ascorbic acid addition group” value in experiment [3] (3 μmol/l, added every 2 or 3 days, Sudan Black B stain) is 5 wells out of 12 wells.
For the compound `O=C1O[C@H]([C@@H](O)CO)C(O)=C1O` [ascorbic acid, reference compound], the “staining of axon (myelin stain)” value in experiment [3] (50 μg/ml, added every 2 or 3 days, 12 wells, Sudan Black B stain) is on record as “axon was stained deep in every well”.

Source of the values: patent US20050090531A1, “MAG expression promoters” (priority 1999, published 2005).
